Here are results for nine molecules from US12539292B2, “BRM targeting compounds and associated methods of use” (Arvinas Operations, Inc., priority 2018, dated 2026).

The term DC50 denotes the midpoint of the concentration-degradation curve. As a reminder, the Dmax is the greatest extent of degradation seen.

Like-named read-outs stand apart in the source and are kept apart here.

For the assay, the target named is T1, BRM (Homo sapiens, UniProt P51531).
T1 construct: In-Cell Western Screen of BRM Degradation in SW1573 Cells; endogenous in cells; host or cells: SW1573
In words: In-cell Western screen of BRM degradation in SW1573 cells (Dmax and DC50). It counts as cell-based. In outline:
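Overnight compound treatment (18-20 h, final DMSO 0.1%) of SW1573 cells in DMEM with 10% FBS precedes fixation and in-cell Western staining with 800/680 nm dye-labelled secondaries. Plate images give DC50 and maximal degradation.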

Setting [1] is: BRM degradation, SW1573 cells, read-out: DC50.
Setting [2] is: BRM degradation, SW1573 cells, tested at the top concentration of between 0.3 and 10 μM, read-out: Dmax (%) (% degraded).

T1 sequence (P51531 whole entry): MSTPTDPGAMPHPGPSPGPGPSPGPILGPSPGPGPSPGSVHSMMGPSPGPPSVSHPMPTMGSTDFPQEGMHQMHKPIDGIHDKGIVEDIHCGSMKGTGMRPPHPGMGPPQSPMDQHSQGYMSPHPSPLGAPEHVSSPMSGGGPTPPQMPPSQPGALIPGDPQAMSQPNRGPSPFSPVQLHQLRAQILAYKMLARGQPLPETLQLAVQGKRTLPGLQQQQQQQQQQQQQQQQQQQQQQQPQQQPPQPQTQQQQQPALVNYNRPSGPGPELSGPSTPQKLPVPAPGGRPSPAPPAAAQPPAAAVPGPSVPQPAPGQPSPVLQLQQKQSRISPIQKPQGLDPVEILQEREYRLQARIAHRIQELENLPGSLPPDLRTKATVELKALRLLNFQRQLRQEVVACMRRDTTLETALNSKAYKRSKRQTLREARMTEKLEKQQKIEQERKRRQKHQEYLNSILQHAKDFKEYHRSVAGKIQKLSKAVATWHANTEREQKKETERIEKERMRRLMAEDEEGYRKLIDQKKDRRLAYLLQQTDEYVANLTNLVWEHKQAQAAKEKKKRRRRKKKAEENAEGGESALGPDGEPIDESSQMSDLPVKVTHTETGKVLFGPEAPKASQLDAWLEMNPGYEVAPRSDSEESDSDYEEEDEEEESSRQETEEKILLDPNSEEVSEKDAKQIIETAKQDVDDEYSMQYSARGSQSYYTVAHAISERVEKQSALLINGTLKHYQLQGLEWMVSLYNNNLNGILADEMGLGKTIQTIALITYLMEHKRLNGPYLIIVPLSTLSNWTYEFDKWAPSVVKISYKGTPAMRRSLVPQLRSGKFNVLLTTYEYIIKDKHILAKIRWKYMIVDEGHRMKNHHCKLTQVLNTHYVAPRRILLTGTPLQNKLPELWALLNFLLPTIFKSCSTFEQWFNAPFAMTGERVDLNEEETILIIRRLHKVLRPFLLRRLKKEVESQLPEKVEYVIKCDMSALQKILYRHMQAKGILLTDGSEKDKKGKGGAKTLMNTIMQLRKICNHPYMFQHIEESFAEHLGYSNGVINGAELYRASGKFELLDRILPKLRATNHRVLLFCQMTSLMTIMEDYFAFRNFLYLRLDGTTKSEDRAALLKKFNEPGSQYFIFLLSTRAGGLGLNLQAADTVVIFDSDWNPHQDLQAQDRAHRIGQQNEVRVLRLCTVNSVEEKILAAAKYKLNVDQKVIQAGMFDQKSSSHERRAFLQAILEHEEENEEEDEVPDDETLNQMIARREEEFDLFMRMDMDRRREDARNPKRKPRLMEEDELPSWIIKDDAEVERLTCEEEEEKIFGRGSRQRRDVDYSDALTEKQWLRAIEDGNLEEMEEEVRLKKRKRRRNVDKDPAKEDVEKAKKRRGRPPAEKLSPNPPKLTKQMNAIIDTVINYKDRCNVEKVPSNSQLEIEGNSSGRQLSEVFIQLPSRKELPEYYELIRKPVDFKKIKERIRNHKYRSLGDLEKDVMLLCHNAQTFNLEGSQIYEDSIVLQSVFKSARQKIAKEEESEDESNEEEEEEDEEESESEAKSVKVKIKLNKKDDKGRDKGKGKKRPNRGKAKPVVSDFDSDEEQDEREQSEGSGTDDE

`Cc1ncsc1-c1ccc([C@H](C)NC(=O)[C@@H]2C[C@@H](O)CN2C(=O)[C@@H](c2cc(N3CCN(CCN4CCC(O[C@H]5C[C@H](Oc6cc(N7C8CCC7CN(c7cc(-c9ccccc9O)nnc7N)C8)ccn6)C5)CC4)CC3)no2)C(C)C)cc1` [compound 144, (2S,4R)-1-((2R)-2-(3-(4-(2-(4-((1r,3r)-3-((4-(3-(3-amino-6-(2-hydroxyphenyl)pyridazin-4-yl)-3,8-diazabicyclo[3.2.1]octan-8-yl)pyridin-2-yl)oxy)cyclobutoxy)piperidin-1-yl)ethyl)piperazin-1-yl)isoxazol-5-yl)-3-methylbutanoyl)-4-hydroxy-N-((S)-1-(4-(4-methylthiazol-5-yl)phenyl)ethyl)pyrrolidine-2-carboxamide]: the DC50 under setting [1] was less than 2.5 nM. For the same molecule, the Dmax (BRM degradation, SW1573 cells, when tested at the top concentration of between 0.3 and 10 μM, read-out: Dmax (%) (% degraded)) is more than 75%.
For `Cc1ncsc1-c1ccc([C@H](C)NC(=O)[C@@H]2C[C@@H](O)CN2C(=O)[C@@H](c2cc(OCCN3CCN(CC#CCN4CCOC5(CCN(c6cc(-c7ccccc7O)nnc6N)CC5)C4)CC3)no2)C(C)C)cc1` [compound 188, (2S,4R)-1-((R)-2-(3-(2-(4-(4-(9-(3-amino-6-(2-hydroxyphenyl)pyridazin-4-yl)-1-oxa-4,9-diazaspiro[5.5]undecan-4-yl)but-2-yn-1-yl)piperazin-1-yl)ethoxy)isoxazol-5-yl)-3-methylbutanoyl)-4-hydroxy-N-((S)-1-(4-(4-methylthiazol-5-yl)phenyl)ethyl)pyrrolidine-2-carboxamide], under setting [1], the DC50 is less than 2.5 nM. Further, the Dmax under setting [2] was more than 75%.
Regarding `Cc1ncsc1-c1ccc([C@H](C)NC(=O)[C@@H]2C[C@@H](O)CN2C(=O)[C@@H](c2cc(N3CCC(CN4CCC(O[C@H]5C[C@H](C#Cc6cc(N7C8CCC7CN(c7cc(-c9ccccc9O)nnc7N)C8)ccn6)C5)CC4)CC3)no2)C(C)C)cc1` [compound 699, (2S,4R)-1-((2R)-2-(3-(4-((4-((1r,3r)-3-((4-(3-(3-amino-6-(2-hydroxyphenyl)pyridazin-4-yl)-3,8-diazabicyclo[3.2.1]octan-8-yl)pyridin-2-yl)ethynyl)cyclobutoxy)piperidin-1-yl)methyl)piperidin-1-yl)isoxazol-5-yl)-3-methylbutanoyl)-4-hydroxy-N-((S)-1-(4-(4-methylthiazol-5-yl)phenyl)ethyl)pyrrolidine-2-carboxamide], the DC50 under setting [1] is less than 2.5 nM. For the same molecule, the maximal degradation (Dmax) (BRM degradation, SW1573 cells, read-out: Dmax (% degraded)) is more than 75%.
Take `Cc1ncsc1-c1ccc([C@H](C)NC(=O)[C@@H]2C[C@@H](O)CN2C(=O)[C@@H](c2cc(OCCCC#Cc3ccc(O[C@H]4C[C@H](Oc5cc(N6C7CCC6CN(c6cc(-c8ccccc8O)nnc6N)C7)ccn5)C4)cn3)no2)C(C)C)cc1` [compound 250, (2S,4R)-1-((2R)-2-(3-((5-(5-((1r,3r)-3-((4-(3-(3-amino-6-(2-hydroxyphenyl)pyridazin-4-yl)-3,8-diazabicyclo[3.2.1]octan-8-yl)pyridin-2-yl)oxy)cyclobutoxy)pyridin-2-yl)pent-4-yn-1-yl)oxy)isoxazol-5-yl)-3-methylbutanoyl)-4-hydroxy-N-((S)-1-(4-(4-methylthiazol-5-yl)phenyl)ethyl)pyrrolidine-2-carboxamide]: the DC50 under setting [1] was less than 2.5 nM. In addition, the Dmax under setting [2] is more than 75%.
`Cc1ncsc1-c1ccc([C@H](C)NC(=O)[C@@H]2C[C@@H](O)CN2C(=O)[C@@H](c2cc(N3CCC(CN4CCC(O[C@H]5C[C@H](C#C[C@@H](C)n6cc(-c7cc(-c8ccccc8O)nnc7N)cn6)C5)CC4)CC3)no2)C(C)C)cc1` [compound 496, (2S,4R)-1-((R)-2-(3-(4-((4-((1R,3r)-3-((R)-3-(4-(3-amino-6-(2-hydroxyphenyl)pyridazin-4-yl)-1H-pyrazol-1-yl)but-1-yn-1-yl)cyclobutoxy)piperidin-1-yl)methyl)piperidin-1-yl)isoxazol-5-yl)-3-methylbutanoyl)-4-hydroxy-N-((S)-1-(4-(4-methylthiazol-5-yl)phenyl)ethyl)pyrrolidine-2-carboxamide]: for the setting “BRM degradation, read-out: BRM DC50”, the DC50 is less than 2.5 nM. Further, the Dmax (SW1573, % degraded, when tested at the top concentration of between 0.3 and 10 μM, read-out: BRM Dmax (%)) is more than 75%.
For `Cc1ncsc1-c1ccc([C@H](C)NC(=O)[C@@H]2C[C@@H](O)CN2C(=O)[C@@H](c2cc(OCC#CC34CC(CN[C@H]5C[C@H](Oc6cc(N7C8CC[C@@H]7CN(c7cc(-c9ccccc9O)nnc7N)C8)ccn6)C5)(C3)C4)no2)C(C)C)cc1` [compound 382, (2S,4R)-1-((2R)-2-(3-((3-(3-((((1r,3R)-3-((4-(3-(3-amino-6-(2-hydroxyphenyl)pyridazin-4-yl)-3,8-diazabicyclo[3.2.1]octan-8-yl)pyridin-2-yl)oxy)cyclobutyl)amino)methyl)bicyclo[1.1.1]pentan-1-yl)prop-2-yn-1-yl)oxy)isoxazol-5-yl)-3-methylbutanoyl)-4-hydroxy-N-((S)-1-(4-(4-methylthiazol-5-yl)phenyl)ethyl)pyrrolidine-2-carboxamide], under “% degraded, when tested at the top concentration of between 0.3 and 10 μM”, the “BRM Dmax (%)” value is given as “A (A > 75)”. Further, the DC50 (target protein degradation, read-out: BRM DC50) was less than 2.5 nM.
`Cc1cnn(C)c1-c1ccc([C@H](C)NC(=O)[C@@H]2C[C@@H](O)CN2C(=O)[C@@H](c2cc(OCCN3CCC(O[C@H]4C[C@H](Oc5cc(N6C7CCC6CN(c6cc(-c8ccccc8O)nnc6N)C7)ccn5)C4)CC3)no2)C(C)C)cc1` [compound 295, (2S,4R)-1-((2R)-2-(3-(2-(4-((1r,3R)-3-((4-(3-(3-amino-6-(2-hydroxyphenyl)pyridazin-4-yl)-3,8-diazabicyclo[3.2.1]octan-8-yl)pyridin-2-yl)oxy)cyclobutoxy)piperidin-1-yl)ethoxy)isoxazol-5-yl)-3-methylbutanoyl)-N-((S)-1-(4-(1,4-dimethyl-1H-pyrazol-5-yl)phenyl)ethyl)-4-hydroxypyrrolidine-2-carboxamide]: under setting [1], the DC50 is less than 2.5 nM. Besides, under setting [2], the Dmax is more than 75%.
For the molecule `Cc1ncsc1-c1ccc([C@@H](NC(=O)[C@@H]2C[C@@H](O)CN2C(=O)[C@H](c2cc(N3CCC(CN4CCC(O[C@H]5C[C@H](Oc6cc(N7C8CCC7CN(c7cc(-c9ccccc9O)nnc7N)C8)ccn6)C5)CC4)CC3)no2)C(C)C)C(F)F)cc1` [compound 571, (2S,4R)-1-((2S)-2-(3-(4-((4-((1r,3r)-3-((4-(3-(3-amino-6-(2-hydroxyphenyl)pyridazin-4-yl)-3,8-diazabicyclo[3.2.1]octan-8-yl)pyridin-2-yl)oxy)cyclobutoxy)piperidin-1-yl)methyl)piperidin-1-yl)isoxazol-5-yl)-3-methylbutanoyl)-N-((R)-2,2-difluoro-1-(4-(4-methylthiazol-5-yl)phenyl)ethyl)-4-hydroxypyrrolidine-2-carboxamide], the DC50 (BRM degradation, SW1573 cells, Table 2D, read-out: *DC50) is more than 30 nM.
As to `Cc1ncsc1-c1ccc([C@H](C)NC(=O)[C@@H]2C[C@@H](O)CN2C(=O)C(c2cc(OCCn3cc(C(C)n4cc(-c5cc(-c6ccccc6O)nnc5N)cn4)ccc3=O)no2)C(C)C)cc1` (stereo in doubt) [compound 162, (2S,4R)-1-((2R)-2-(3-(2-(5-(1-(4-(3-amino-6-(2-hydroxyphenyl)pyridazin-4-yl)-1H-pyrazol-1-yl)ethyl)-2-oxopyridin-1(2H)-yl)ethoxy)isoxazol-5-yl)-3-methylbutanoyl)-4-hydroxy-N-((S)-1-(4-(4-methylthiazol-5-yl)phenyl)ethyl)pyrrolidine-2-carboxamide], the DC50 under setting [1] is more than 30 nM. Moreover, for the setting “BRM degradation, SW1573 cells, tested at the top concentration of between 0.3 and 10 μM”, the “Dmax (%) (% degraded)” value was “A (A > 75)”.
